The source made the active and inactive calls. No cut-off for these calls is given here.
Columns and labels:
V79-4 [1] = assay: ROS scavenging activity in chinese hamster V79-4 cells at 50 ug/mL after 30 mins by DCF-DA method; format: functional, Cricetulus griseus
V79-4 [2] = assay: Protective effect on hydrogen peroxide-induced damage in chinese hamster V79-4 cells in presence of U0126 by MTT assay; format: functional, cell-based; conditions: Cricetulus griseus
V79-4 [3] = assay: Decrease in hydrogen peroxide-induced 8-OHdG in chinese hamster V79-4 cells at 10 ug/mL; format: functional, Cricetulus griseus
[4] = DPPH radical scavenging activity at 10 ug/ml after 30 mins; format: functional
[5] = DPPH radical scavenging activity at 1 ug/ml after 30 mins; format: functional
[6] = biological target: Transcription factor Jun (Homo sapiens) (UniProt P05412); assay: Increase in transcriptional activity of AP1 transfected in V79-4 cells by luciferase assay; format: cell-based
V79-4 [7] = assay: Protective effect on hydrogen peroxide-induced cell damage in chinese hamster V79-4 cells assessed as decrease in DNA fragmentation level at 50 ug/ml by ELISA; format: functional, cell-based; conditions: Cricetulus griseus
V79-4 [8] = assay: Protection against hydrogen peroxide-induced apoptosis in chinese hamster V79-4 cells assessed as cell survival by MTT assay; format: functional, Cricetulus griseus
V79-4 [9] = assay: ROS scavenging activity in chinese hamster V79-4 cells at 10 ug/mL after 30 mins by DCF-DA method; format: functional, Cricetulus griseus
V79-4 [10] = assay: Inhibition of hydrogen peroxide-induced lipid peroxidation in chinese hamster V79-4 cells assessed as TBARS per mg of protein at 10 ug/mL; format: functional, Cricetulus griseus
V79-4 [11] = assay: ROS scavenging activity in chinese hamster V79-4 cells at 1 ug/mL after 30 mins by DCF-DA method; format: functional, Cricetulus griseus
V79-4 [12] = assay: Inhibition of hydrogen peroxide-induced lipid peroxidation in chinese hamster V79-4 cells assessed as TBARS per mg of protein at 50 ug/mL; format: functional, Cricetulus griseus
[13] = DPPH radical scavenging activity at 50 ug/ml after 30 mins; format: functional
V79-4 [14] = assay: Inhibition of hydrogen peroxide-induced lipid peroxidation in chinese hamster V79-4 cells assessed as TBARS per mg of protein at 1 ug/mL; format: functional, Cricetulus griseus
V79-4 [15] = assay: Decrease in hydrogen peroxide-induced 8-OHdG in chinese hamster V79-4 cells at 50 ug/mL; format: functional, Cricetulus griseus
V79-4 [16] = assay: Decrease in hydrogen peroxide-induced 8-OHdG in chinese hamster V79-4 cells at 1 ug/mL; format: functional, Cricetulus griseus
V79-4 [17] = assay: Effect on hydrogen peroxide-induced DNA damage in chinese hamster V79-4 cells assessed as decrease in phospho H2A.X expression; format: functional, cell-based; conditions: Cricetulus griseus
V79-4 [18] = assay: Activation of ERK in chinese hamster V79-4 cells assessed as phosphorylated ERK within 6 hrs; format: cell-based; conditions: Cricetulus griseus
V79-4 [19] = assay: Protective effect on hydrogen peroxide-induced cell damage in chinese hamster V79-4 cells assessed as decrease in apoptotic sub-G1 DNA content at 50 ug/ml by flow cytometry; format: functional, Cricetulus griseus; design: scale not given: the % may be the effect or the level left

Sequence of Transcription factor Jun (Homo sapiens) (P05412 whole entry, the tested form may be a part): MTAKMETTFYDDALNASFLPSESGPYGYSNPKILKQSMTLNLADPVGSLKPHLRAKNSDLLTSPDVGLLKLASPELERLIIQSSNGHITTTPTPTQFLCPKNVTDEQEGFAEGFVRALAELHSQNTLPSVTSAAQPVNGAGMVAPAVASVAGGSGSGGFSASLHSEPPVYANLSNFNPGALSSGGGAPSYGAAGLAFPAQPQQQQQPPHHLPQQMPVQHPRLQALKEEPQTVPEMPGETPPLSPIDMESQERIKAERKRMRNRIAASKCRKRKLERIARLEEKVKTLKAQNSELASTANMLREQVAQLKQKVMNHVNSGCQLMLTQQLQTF

Compound	Activity (V79-4 [1]) [%]	Activity (V79-4 [2])	Activity (V79-4 [3]) [pg/mL]	Activity [4] [%]	Activity [5] [%]	Activity [6]	Activity (V79-4 [7])	Survival (V79-4 [8]) [%]	Activity (V79-4 [9]) [%]	Activity (V79-4 [10]) [µmol]	Activity (V79-4 [11]) [%]	Activity (V79-4 [12]) [µmol]	Activity [13] [%]	Activity (V79-4 [14]) [µmol]	Activity (V79-4 [15]) [pg/mL]	Activity (V79-4 [16]) [pg/mL]	Activity (V79-4 [17])	Activity (V79-4 [18])	Activity (V79-4 [19]) [%]
COc1ccc(-c2coc3cc(O)c(OC)c(O)c3c2=O)cc1 [IRISOLIDONE]	66	inactive	7956	19	10	Active	Active	48	58	1	41	0.8	44	1.2	6409	9280	Active	Active	36
COc1ccc(-c2coc3cc(O[C@@H]4O[C@H](COC5OC[C@@H](O)[C@H](O)[C@H]5O)[C@@H](O)[C@H](O)[C@H]4O)c(OC)c(O)c3c2=O)cc1 (stereo not given in full) [KAKKALIDE]	51			12	8				37		29		28						

Source: ChEMBL document CHEMBL1143962, “Protective effect of irisolidone, a metabolite of kakkalide, against hydrogen peroxide induced cell damage via antioxidant effect” (2008)
